Biological target: T1, hROMK (hKir1.1) (Homo sapiens, UniProt P48048)
T1 construct: expressed in transfected cells
T1 sequence (P48048 1-391): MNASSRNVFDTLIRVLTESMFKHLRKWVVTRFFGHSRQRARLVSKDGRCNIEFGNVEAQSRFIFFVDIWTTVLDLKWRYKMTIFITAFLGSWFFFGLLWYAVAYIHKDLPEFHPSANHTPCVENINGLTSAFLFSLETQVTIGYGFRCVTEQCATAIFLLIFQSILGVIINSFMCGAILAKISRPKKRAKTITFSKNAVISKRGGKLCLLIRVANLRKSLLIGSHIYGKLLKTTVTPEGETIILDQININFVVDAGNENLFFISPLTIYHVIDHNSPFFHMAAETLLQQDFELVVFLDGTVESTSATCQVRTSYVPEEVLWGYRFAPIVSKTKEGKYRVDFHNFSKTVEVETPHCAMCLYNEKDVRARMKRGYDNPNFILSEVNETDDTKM
Experiment: Thallium Flux Assay
Format: cell-based
Conditions: HEK293 cells stably expressing hROMK (hKir1.1)
Description: Cell Culture Conditions—HEK293 cells stably expressing hROMK (hKir1.1) were grown at 37° C. in a 10% CO2 humidified incubator in complete growth media: Dulbecco's Modified Eagle Medium supplemented with non-essential amino acids, Penicillin/Streptomycin/Glutamine, G418 and FBS. At >80% confluency, aspirate the media from the flask and rinse with 10 mL Calcium/Magnesium-free PBS. Add 5 mL of 1× trypsin (prepared in Ca/Mg Free PBS) to T-225 flask and return flask to 37° C./CO2 incubator for 2-3 minutes. To dislodge the cell, gently bang the side of the flask with your hand. Triturate the cells completely and then transfer the cells to 25 mL complete media. Centrifuge at 1,500 rpm for 6 min followed by resuspension in complete growth media and determine cell concentration. For typical re-seeding, 4E6 cells/T-225 flask will attain >80% confluency in 4 days. Under ideal growth conditions and appropriate tissue culture practices, this cell line is stable for 40-45 passages.
FluxOR Kit Components (Invitrogen F10017)
• FluxOR™ Reagent (Component A) • FluxOR™ Assay Buffer (Component B)—10× Concentrate • PowerLoad™ Concentrate (Component C)—100× Concentrate • Probenecid (Component D)—Lyophilized sample is kept at −20° C. Water soluble, 100× after solubilization in 1 mL water. Store at 4° C. • FluxOR™ Chloride-free Buffer (Component E)—5× Concentrate • Potassium sulfate (K2SO4) Concentrate (Component F)—125 mM in water. Store at 4° C. • Thallium sulfate (Tl2SO4) Concentrate (Component G)—50 mM in water. Store at 4° C. • DMSO (dimethyl sulfoxide, Component H)—1 mL (100%) Reagent Preparation: FluxOR Working Solutions • 1000× FluxOR™ Reagent: Reconstitute a vial of component A in 100 μl DMSO; Mix well; Store 10 μl aliquots at −20° C. • 1× FluxOR™ Assay Buffer: Dilute Component B 10-fold with water; Adjust pH to 7.4 with Hepes/NaOH; Filter and store at 4° C. • Probenecid/Assay Buffer: 100 mL of 1× FluxOR™ Assay Buffer; 1 mL of reconstituted component D; Store at 4° C. • Loading Buffer (per microplate): 10 μl 1000× FluxOR™ Reagent; 100 μl component C; 10 mL Probenecid/Assay Buffer • Compound Buffer (per microplate): 20 mL Probenecid/Assay Buffer; 0.3 mM ouabain (10 mM ouabain in water can be stored in amber bottle/aluminum foil at room temperature); Test compound • 1× FluxOR™ Chloride-Free Buffer: Prepare 1× working solution in water. Can be stored at room temperature • Stimulant Buffer (prepared at 5× final concentration in 1× FluxOR™Chloride-Free Buffer): 7.5 mM Thallium sulfate and 0.75 mM Potassium sulfate (to give a final assay concentration of 3 mM Thallium/0.3 mM Potassium). Store at 4° C. when not in use. If kept sterile, this solution is good for months.
Assay Protocol—The ROMK channel functional thallium flux assay is performed in 384 wells, using the FLIPR-Tetra instrument. HEK-hKir1.1 cells are seeded in Poly-D-Lysine microplates and kept in a 37° C.-10% CO2 incubator overnight. On the day of the experiment, the growth media is replaced with the FluxOR™ reagent loading buffer and incubated, protected from light, at ambient temperature (23-25° C.) for 90 min. The loading buffer is replaced with assay buffer± test compound followed by 30 min incubation at ambient temperature, where the Thallium/Potassium stimulant is added to the microplate.
• 1. Seed HEK-hKir1.1 cells (50 μl at 20,000 cells/well) in 384-well PDL coated Microplates • 2. Allow cells to adhere overnight in humidified 37° C./10% CO2 incubator • 3. Completely remove cell growth media from microplate and replace with 25 μl loading buffer • 4. Incubate Microplate at room temperature, protected form light, for 90 min • 5. Remove loading buffer and replace with 25 μl 1× Assay Buffer±test compound. • 6. Incubate microplate at room temperature, protected from light, for 30 min • 7. At FLIPR-Tetra 384: Add stimulant (Thallium/Potassium) solution to microplate and monitor fluorescence. Excitation=400 nm, Emission=460 & 580 nm. Collect data for ˜10 min. […]

IC50 [nM]	Compound
450	Cc1c([C@@H](O)CN2CCC(NC(=O)c3cccc(-n4cnnn4)c3)CC2)ccc2c1COC2=O [Example 36, (R)-N-(1-(2-Hydroxy-2-(4-methyl-1-oxo-1,3-dihydroisobenzofuran-5-yl)ethyl)piperidin-4-yl)-3-(1H-tetrazol-1-yl)benzamide]
100	Cc1c([C@@H](O)CN2CCC(NC(=O)c3ccc(-n4cccn4)cc3)CC2)ccc2c1COC2=O [Example 37, (R)-N-(1-(2-Hydroxy-2-(4-methyl-1-oxo-1,3-dihydroisobenzofuran-5-yl)ethyl)piperidin-4-yl)-4-(1H-pyrazol-1-yl)benzamide]
1000	Cc1c([C@@H](O)CN2CC[C@@H](NC(=O)c3ccc(C#N)cn3)[C@H](F)C2)ccc2c1COC2=O [Example 38, 5-Cyano-N-((trans)-3-fluoro-1-((R)-2-hydroxy-2-(4-methyl-1-oxo-1,3-dihydroisobenzofuran-5-yl)ethyl)piperidin-4-yl)picolinamide]
310	Cc1c([C@@H](O)CN2CCC(NC(=O)c3ccc(-c4cc[nH]n4)cc3)CC2)ccc2c1COC2=O [Example 39, (R)-N-(1-(2-Hydroxy-2-(4-methyl-1-oxo-1,3-dihydroisobenzofuran-5-yl)ethyl)piperidin-4-yl)-4-(1H-pyrazol-3-yl)benzamide]
70	Cc1nc(C(=O)NC2CCN(C[C@H](O)c3ccc4c(c3C)COC4=O)CC2)ccc1C#N [Example 41, (R)-5-Cyano-N-(1-(2-hydroxy-2-(4-methyl-1-oxo-1,3-dihydroisobenzofuran-5-yl)ethyl)piperidin-4-yl)-6-methylpicolinamide]
100	Cc1c([C@@H](O)CN2CCC(NC(=O)c3ncc(C#N)c4ccccc34)CC2)ccc2c1COC2=O [Example 42, (R)-4-Cyano-N-(1-(2-hydroxy-2-(4-methyl-1-oxo-1,3-dihydroisobenzofuran-5-yl)ethyl)piperidin-4-yl)isoquinoline-1-carboxamide]
450	Cc1c([C@@H](O)CN2CCC(NC(=O)c3ccc(C#N)cc3F)CC2)ccc2c1COC2=O [Example 45, (R)-4-Cyano-2-fluoro-N-(1-(2-hydroxy-2-(4-methyl-1-oxo-1,3-dihydroisobenzofuran-5-yl)ethyl)piperidin-4-yl)benzamide]
150	Cc1c([C@@H](O)CN2CCC(NC(=O)c3ccc(-n4cnnn4)nc3)CC2)ccc2c1COC2=O [Example 49, (R)-N-(1-(2-Hydroxy-2-(4-methyl-1-oxo-1,3-dihydroisobenzofuran-5-yl)ethyl)piperidin-4-yl)-6-(1H-tetrazol-1-yl)nicotinamide]
390	Cc1c([C@@H](O)CN2CCC(C)(NC(=O)c3ccc(-n4cnnn4)nc3)CC2)ccc2c1COC2=O [Example 51, (R)-N-(1-(2-Hydroxy-2-(4-methyl-1-oxo-1,3-dihydroisobenzofuran-5-yl)ethyl)-4-methylpiperidin-4-yl)-6-(1H-tetrazol-1-yl)nicotinamide]
190	Cc1c([C@@H](O)CN2CCC(NC(=O)c3ccc(-n4cnnn4)cn3)CC2)ccc2c1COC2=O [Example 53, (R)-N-(1-(2-Hydroxy-2-(4-methyl-1-oxo-1,3-dihydroisobenzofuran-5-yl)ethyl)piperidin-4-yl)-5-(1H-tetrazol-1-yl)picolinamide]
530	Cc1c([C@@H](O)CN2CCC3(CC2)CCN3C(=O)c2ccc(-n3cnnn3)cn2)ccc2c1COC2=O [Example 55, (R)-5-(2-(1-(5-(1H-Tetrazol-1-yl)picolinoyl)-1,7-diazaspiro[3.5]nonan-7-yl)-1-hydroxyethyl)-4-methylisobenzofuran-1(3H)-one]
710	Cc1c([C@@H](O)CN2CC3C(C2)C3NC(=O)c2ccc(-n3cnnn3)cn2)ccc2c1COC2=O (stereo partly drawn) [Example 56, N-(3-((R)-2-Hydroxy-2-(4-methyl-1-oxo-1,3-dihydroisobenzofuran-5-yl)ethyl)-3-azabicyclo[3.1.0]hexan-6-yl)-5-(1H-tetrazol-1-yl)picolinamide]
320	COc1cc(C(=O)NC2CCN(C[C@H](O)c3ccc4c(c3C)COC4=O)CC2)ccc1C#N [Example 57, (R)-4-Cyano-N-(1-(2-hydroxy-2-(4-methyl-1-oxo-1,3-dihydroisobenzofuran-5-yl)ethyl)piperidin-4-yl)-3-methoxybenzamide]
90	Cc1cc(C(=O)NC2CCN(C[C@H](O)c3ccc4c(c3C)COC4=O)CC2)ncc1-n1cnnn1 [Example 59, (R)-N-(1-(2-Hydroxy-2-(4-methyl-1-oxo-1,3-dihydroisobenzofuran-5-yl)ethyl)piperidin-4-yl)-4-methyl-5-(1H-tetrazol-1-yl)picolinamide]
180	Cc1c([C@@H](O)CN2CCC(C)(NC(=O)c3ccc(-n4cnnn4)cn3)CC2)ccc2c1COC2=O [Example 60, (R)-N-(1-(2-Hydroxy-2-(4-methyl-1-oxo-1,3-dihydroisobenzofuran-5-yl)ethyl)-4-methylpiperidin-4-yl)-5-(1H-tetrazol-1-yl)picolinamide]
230	Cc1c([C@@H](O)CN2CC[C@H](NC(=O)c3ccc(-n4cnnn4)cn3)C2)ccc2c1COC2=O [Example 61, N-((S)-1-((R)-2-Hydroxy-2-(4-methyl-1-oxo-1,3-dihydroisobenzofuran-5-yl)ethyl)pyrrolidin-3-yl)-5-(1H-tetrazol-1-yl)picolinamide]
370	Cc1c([C@@H](O)CN2CC[C@@H](NC(=O)c3ccc(-n4cnnn4)cn3)C2)ccc2c1COC2=O [Example 62, N-((R)-1-((R)-2-Hydroxy-2-(4-methyl-1-oxo-1,3-dihydroisobenzofuran-5-yl)ethyl)pyrrolidin-3-yl)-5-(1H-tetrazol-1-yl)picolinamide]
860	Cc1cc(C(=O)NC2(C)CCN(C[C@H](O)c3ccc4c(c3C)COC4=O)CC2)ncc1-n1cnnn1 [Example 63, (R)-N-(1-(2-Hydroxy-2-(4-methyl-1-oxo-1,3-dihydroisobenzofuran-5-yl)ethyl)-4-methylpiperidin-4-yl)-4-methyl-5-(1H-tetrazol-1-yl)picolinamide]
470	Cc1c([C@@H](O)CN2CCC(NC(=O)c3cnc(-n4cnnn4)cn3)CC2)ccc2c1COC2=O [Example 64, (R)-N-(1-(2-Hydroxy-2-(4-methyl-1-oxo-1,3-dihydroisobenzofuran-5-yl)ethyl)piperidin-4-yl)-5-(1H-tetrazol-1-yl)pyrazine-2-carboxamide]
110	Cc1c([C@@H](O)CN2CCC(NC(=O)c3ccc(-n4cnnn4)nn3)CC2)ccc2c1COC2=O [Example 65, (R)-N-(1-(2-Hydroxy-2-(4-methyl-1-oxo-1,3-dihydroisobenzofuran-5-yl)ethyl)piperidin-4-yl)-6-(1H-tetrazol-1-yl)pyridazine-3-carboxamide]

From US9777002B2, “Inhibitors of the renal outer medullary potassium channel” (Merck Sharp & Dohme Corp., priority 2012, dated 2017)
